SMILES strings stand for the structures.

A short description of data set [1]: Drug excretion in human feces. In kind it is ADME, tissue-based. The settings on record: faeces, read-out: Drug excretion.
A short description of data set [2]: Volume of distribution in human. It counts as ADME.
Data set [3] can be described thus: Time to reach peak level in human. It counts as ADME.
Data set [4] in a line: Drug excretion in human urine. In kind it is ADME, tissue-based. The settings on record: read-out: Drug excretion.
A short description of data set [5]: Elimination half life in human. In kind it is ADME. To be noted: read-out: beta t1/2 (converted).
A short description of data set [6]: Protein binding in human plasma. It counts as ADME, cell-free. The settings on record: read-out: PPB (converted).
The nature of data set [7]: Bioavailability in human. To be noted: in vivo. It counts as ADME, organism-based.

Turning to `CN(C)C(=O)c1cc2cnc(Nc3ccc(N4CCNCC4)cn3)nc2n1C1CCCC1` [RIBOCICLIB], the dose excreted turned out to be 69% in data set [1] and 23% in data set [4]. Moreover, the Vd in data set [2] is 1090 L. Moreover, the Tmax in data set [3] worked out at 1 h. The half-life in data set [5] was 30 h.
Consider `CCN1CCN(Cc2ccc(Nc3ncc(F)c(-c4cc(F)c5nc(C)n(C(C)C)c5c4)n3)nc2)CC1` [ABEMACICLIB], for which the figures for the dose excreted in data set [1] and in data set [4] were 81% and 3%, respectively. Moreover, the fraction unbound in data set [6] is 0.07. In addition, the bioavailability in data set [7] came out at 45%. In data set [2], this molecule showed a volume of distribution (Vd) of 690 L. Also, the Tmax in data set [3] was found to be 8 h.
Turning to `CC(=O)c1c(C)c2cnc(Nc3ccc(N4CCNCC4)cn3)nc2n(C2CCCC2)c1=O` [PALBOCICLIB], the Vd in data set [2] turned out to be 2580 L. Moreover, the Tmax in data set [3] was determined as 6 h. Besides, the half-life in data set [5] is 29 h.
